Experimental data: US20260226414A1, “COMPOSITION FOR INDUCING DIFFERENTIATION OF MESENCHYMAL STEM CELLS INTO ADIPOCYTES” (ENCELL CO., LTD, priority 2023, published 2026)

Assays:
Format in all cases: cell-based
[1] = test system: human adipose-derived mesenchymal stem cells (AD-MSCs); experiment: Western blotting of adipogenesis-associated signaling molecules (phosphorylation ratios); details: 160 μM, day 14, Western blotting
Experimental: After inducing adipogenesis for 14 days by treating human adipose-derived mesenchymal stem cells (AD-MSCs) with 160 μM nervonic acid, the expression of adipogenesis-associated signaling molecules at the protein level was compared using Western blotting.
More specifically, protein for Western blotting was extracted using the same method as the extraction method described above, and Western blotting was performed using the primary antibodies listed in Table 3 below.

[2] = test system: human bone marrow-derived mesenchymal stem cells (BM-MSCs); experiment: Adipogenesis induction, Oil Red O staining quantification; details: 160 μM, days 7 and 14
Experimental: (§1) Specifically, for Oil Red O (Sigma-Aldrich, St. Louis, MO, USA) staining, after completion of differentiation, the culture medium was removed from each well of the plate, followed by washing twice with 1×PBS and then fixing with 4% paraformaldehyde (PFA) for 10 minutes. Washing three times with deionized water and then washing once with 60% isopropyl alcohol were performed. The Oil Red O stock solution was diluted with deionized water in a ratio of 3:2 to prepare an Oil Red O working solution, 1 ml of which was then added to each well of the plate followed by reaction at room temperature for 30 minutes. After washing once with 60% isopropyl alcohol and washing three times with deionized water, the red-stained oil droplets were observed and photographed under a microscope, and the results are shown in FIG. 4a.
(§2) Specifically, the stained oil droplets were dissolved in 100% isopropyl alcohol, and 100 μl of the result was transferred to each well of the 96-well plate, followed by measurement using a microplate reader (absorbance at 540 nm). […]
After inducing adipogenesis for 7, 14, and 21 days by treating human bone marrow-derived mesenchymal stem cells (BM-MSC) with nervonic acid, the oil droplets stained by Oil Red O staining are shown in FIG. 11a, and the results of quantification of the stained oil droplets are shown in FIG. 11b.

[3] = test system: human placenta-derived mesenchymal stem cells (PL-MSCs); experiment: as above
Experimental: as §1, §2
After inducing adipogenesis for 7, 14, and 21 days by treating human placenta-derived mesenchymal stem cells (PL-MSCs) with nervonic acid, the oil droplets stained by Oil Red O staining are shown in FIG. 9a, and the results of quantification of the stained oil droplets are shown in FIG. 9b.

[4] = test system: human adipose-derived mesenchymal stem cells (AD-MSCs); experiment: Adipogenesis induction, Oil Red O staining and quantification (absorbance at 540 nm); details: for Oil Red O stained oil droplets, fold increase compared to DMSO-treated control group: 160 μM, three lots of AD-MSCs
Experimental: To determine the appropriate concentration of nervonic acid having excellent efficacy in promoting adipogenesis, adipogenesis was induced for 7 days by treating human adipose-derived mesenchymal stem cells with nervonic acid at different concentrations (0, 40, 80, 120, 160, 200, 240, 280 μM), followed by Oil Red O staining to confirm the stained oil droplets.
as §1
After inducing adipogenesis for 7 days by treating human adipose-derived mesenchymal stem cells with nervonic acid at different concentrations (0, 40, 80, 120, 160, 200, 240, 280 μM), the results of quantification of the oil droplets stained by Oil Red O staining are shown in FIG. 4b.
Specifically, the stained oil droplets were dissolved in 100% isopropyl alcohol, and 100 μl of the result was transferred to each well of the 96-well plate, followed by measurement using a microplate reader (absorbance at 540 nm). […] Nervonic acid (Sigma-Aldrich, St. Louis, MO, USA) was dissolved in DMSO and then stored at −80° C. before use.
Adipogenesis was induced for 7 days by treating a total of three lots of human adipose-derived mesenchymal stem cells (AD-MSCs) with 160 μM nervonic acid, followed by observation of the oil droplets stained by Oil Red O staining, and the results are shown in FIG. 5a.

[5] = test system: human umbilical cord-derived mesenchymal stem cells (WJ-MSCs); experiment: Adipogenesis induction, Oil Red O staining quantification
Experimental: as §1, §2
(§3) After inducing adipogenesis for 7, 14, and 21 days by treating human umbilical cord-derived mesenchymal stem cells (WJ-MSCs) with nervonic acid, the oil droplets stained by Oil Red O staining are shown in FIG. 10a, and the results of quantification of the stained oil droplets are shown in FIG. 10b.

[6] = test system: human adipose-derived mesenchymal stem cells; experiment: Cell viability / cytotoxicity by Cell Counting Kit-8 (CCK-8); details: 0-280 μM nervonic acid, vs DMSO control
Experimental: The isolated human adipose-derived mesenchymal stem cells were treated with nervonic acid at different concentrations and cultured for 72 hours, after which cytotoxicity was measured. Specifically, Cell Counting Kit-8 (CCK-8, Dojindo, Tokyo, Japan) was used, and 1×10^3/well of cells were plated on a 96-well plate, stabilized for 24 hours, and then treated with nervonic acid at different concentrations (0, 40, 80, 120, 160, 200, 240, 280 μM), including the control group (DMSO), and cell viability was measured.
Before confirming the efficacy of nervonic acid to promote adipogenesis, cell viability was reconfirmed by treating cells with nervonic acid at various concentrations for 7 days. The specific method is the same as the method described above, and cell viability was measured by treatment with nervonic acid at different concentrations (0, 40, 80, 120, 160, 200, 240, 280 μM), including the control group (DMSO).

[7] = test system: human adipose-derived mesenchymal stem cells; experiment: Observation of oil droplet formation after 72 hours of culture with nervonic acid; details: 72 hours treatment, different concentrations
Experimental: Human adipose-derived mesenchymal stem cells were treated with nervonic acid at different concentrations for 72 hours and cultured, after which the concentration at which oil droplets were generated was observed.

[8] = test system: human adipose-derived mesenchymal stem cells (AD-MSCs); experiment: qRT-PCR of adipogenesis markers at the mRNA level (2^-ΔΔCt); details: 160 μM, day 14, qRT-PCR
Experimental: After inducing adipogenesis for 14 days by treating human adipose-derived mesenchymal stem cells (AD-MSCs) with 160 μM nervonic acid, the gene expression of adipogenesis markers at the mRNA level was compared using qRT-PCR.
Specifically, RNA for qRT-PCR was extracted from mesenchymal stem cells with adipogenesis completed using TRIZOL from Invitrogen according to the method provided by the vendor, and cDNA was synthesized using SuperScript™ IV Reverse Transcriptase from Invitrogen. qRT-PCR was performed using the primers listed in Table 1 below, and the quantified results through 2^−ΔΔCt analysis are shown in FIG. 12.

[9] = test system: human umbilical cord blood-derived mesenchymal stem cells (UCB-MSCs); experiment: Adipogenesis induction, Oil Red O staining quantification
Experimental: as §1, §2
as §3, with “cord blood-derived” for “cord-derived”, “(UCB-MSCs)” for “(WJ-MSCs)”, “8a,” for “10a,”, “8b.” for “10b.”

[10] = test system: human adipose-derived mesenchymal stem cells (AD-MSCs); experiment: Western blotting of adipogenesis markers at the protein level; details: 160 μM, day 14, Western blotting
Experimental: After inducing adipogenesis for 14 days by treating human adipose-derived mesenchymal stem cells (AD-MSCs) with 160 μM nervonic acid, the expression of adipogenesis markers at the protein level was compared using Western blotting.
Specifically, protein for Western blotting was extracted from mesenchymal stem cells with adipogenesis completed using RIPA lysis buffer, and Western blotting was performed using the primary antibodies listed in Table 2 below.

[11] = 160 μM, 7, 14 and 21 days (all cases)

Which “AKT phosphorylation ratio (activation indicator), fold increase compared to control group” value [1] does the source give for CCCCCCCC/C=C\CCCCCCCCCCCCCC(=O)O [nervonic acid] here?
The value was 1.36±0.16 fold.

And the “B-catenin phosphorylation ratio (inactivation indicator), fold increase compared to control group” value [1]?
The value was 1.39±0.06 fold.

And the “mTOR phosphorylation ratio (activation indicator), fold increase compared to control group” value [1]?
The value was 1.34±0.14 fold.

And the “adipogenesis (Oil Red O) compared to DMSO control group” value [2]?
The value was “slightly increased”.

What about the “Oil Red O stained oil droplets, fold increase compared to DMSO control group” value [3, 11] of the same compound?
Its value is at least 2 fold.

And the “Oil Red O stained oil droplets, fold increase compared to DMSO control group” value ([3]; 160 μM, day 21 (greatest))?
Its value is 9.22±0.15 fold.

What about the “Oil Red O stained oil droplets, fold increase compared to DMSO-treated control group” value ([4]; 7 days) of the same compound?
The value was 2.13±0.27 fold.

What about the “Oil Red O stained oil droplets, fold increase compared to DMSO-treated control group” value ([4]; 14 days) of the same compound?
The value was 1.70±0.08 fold.

And the “Oil Red O stained oil droplets, fold increase compared to DMSO-treated control group” value ([4]; 21 days)?
Its value is 1.27±0.14 fold.

What about the “concentration at which adipogenesis was most effectively induced (Oil Red O quantification)” value ([4]; 7 days adipogenesis, 0-280 μM tested) of the same compound?
The value was 160 µM.

And the “Oil Red O stained oil droplets, fold increase compared to DMSO control group” value [5, 11]?
The value was at least 2 fold.

And the “Oil Red O stained oil droplets, fold increase compared to DMSO control group” value ([5]; 160 μM, day 21 (greatest))?
Its value is 5.61±0.23 fold.

And the “cell viability (cytotoxicity)” value ([6]; 72 hours (3 days))?
Its value is “no significant difference in cell viability”.

And the “cell viability (cytotoxicity)” value ([6]; 7 days)?
Its value is “no significant difference in cell viability”.

And the “concentration at which oil droplets were observed” value [7]?
Its value is at least 160 µM.

What about the “Adiponectin mRNA expression, fold increase compared to control group” value [8] of the same compound?
Its value is 1.37±0.19 fold.

And the “LPL mRNA expression, fold increase compared to control group” value [8]?
The value was 1.44±0.12 fold.

And the “PPARγ mRNA expression, fold increase compared to control group” value [8]?
Its value is 1.74±0.35 fold.

And the “c/EBPa mRNA expression, fold increase compared to control group” value [8]?
The value was 1.66±0.22 fold.

And the “Oil Red O stained oil droplets, fold increase compared to DMSO control group” value [9, 11]?
Its value is at least 2 fold.

What about the “Oil Red O stained oil droplets, fold increase compared to DMSO control group” value ([9]; 160 μM, day 21 (greatest)) of the same compound?
The value was 3.87±0.06 fold.

And the “Adiponectin protein expression, fold increase compared to control group” value [10]?
Its value is 2.35±0.55 fold.

And the “C/EBPA protein expression, fold increase compared to control group” value [10]?
The value was 1.37±0.08 fold.

And the “LPL protein expression, fold increase compared to control group” value [10]?
Its value is 1.53±0.15 fold.

And the “PPARγ protein expression, fold increase compared to control group” value [10]?
Its value is 2.34±0.69 fold.
